Experiments:
HIV-RT = molecular target: T1, HIV-RT (HIV-1 M:B_HXB2R, UniProt P04585); assay: Incorporation of oxidized dCTP derivatives into gapped M13mp2 DNA by HIV-RT; format: biochemical; settings: for Molecules incorporated by HIV-RT per molecule of template: 2 min incubation
T1 construct: mature RT cut from Gag-Pol polyprotein (Pr160Gag-Pol)
Experimental: The purification of oxidized derivatives of dCTP is monitored by measuring incorporation into gapped DNA. The gapped DNA consists of a single-stranded circular M13mp2 DNA containing uracil residues annealed to a linear incomplete complementary strand lacking uracil so as to create a 361-nt gap spanning part of the lacZ gene (prepared as described in Feig and Loeb, Biochemistry 32:4466-73, 1993). The reaction mixture (0.02 ml) contains: 200 ng of gapped DNA, 60 mM Tris-HCl (pH 8.0), 10 mM KCl, 7 mM MgCl2, 1 mM dithiothreitol, 0.5 mM EDTA, 200 μM (each) dATP, dGTP and TTP, 1 μM α-^32 P!dCTP or modified dCTP (692 cpm/pmol), and 1.25 units of recombinant HIV-RT (Preston et al., Science 242:1168-1171, 1988) (1 unit is the amount of enzyme required to catalyze the incorporation of 1 nmol of dNTP into DNA in 1 h at 37° C.). The nucleotide bias in this reaction drives the incorporation of modified cytosine only at sites opposite guanosines in the lacZα gene. Samples are extracted once each with phenol and chloroform/isoamyl alcohol, 24:1, followed by ethanol precipitation in the presence of 400 mM NaCl and 10 μg of glycogen (as a coprecipitant). […]
The column fractions are used in place of dCTP for DNA synthesis reactions. […] Partially double-stranded DNA products are purified, and gap filling synthesis is completed using the Klenow fragment of E. coli DNA polymerase I. Incorporation of oxidized cytosine derivatives is quantified by scintillation counting and the toxicity of the fractions is assessed by comparing the transfection efficiency of DNA synthesized by using fractions containing the altered nucleotides to that of DNA synthesized with dCTP passed through the same column. The mutagenicity of each fraction is measured by scoring forward mutations in the lacZ gene for β-galactosidase (Kunkel, Proc. Natl. Acad Sci. USA 81:1494-1498, 1984).

lacZ gene = assay: Forward mutation assay in lacZ of gapped M13mp2 DNA (reduced α-complementation) after transfection into E. coli; format: cell-based; settings: for Transfection efficiency, plaques per ng: Table I, gap filled by pol-I1f; for Transfection efficiency, plaques per ng / Transfection efficiency (yield of transfectants) / Mutation frequency: with HIV-RT; for Mutation frequency: number of mutants in parentheses in Table I
Excerpt: The column fractions are used in place of dCTP for DNA synthesis reactions. The DNA template is a double-stranded M13mp2 molecule with a 361-nt single-stranded gap spanning part of the lacZ gene for bacterial β-galactosidase. The uracil-containing strand is rapidly hydrolyzed upon transfection in E. coli, resulting in a 10^4 -fold preferential expression of the strand lacking uracil and preventing the repair of altered cytidines incorporated into the strand lacking uracil. DNA synthesis is catalyzed by HIV RT in the presence of 200 μM dATP, dGTP and TTP and 1 μM of each fraction from the reverse-phase column. Partially double-stranded DNA products are purified, and gap filling synthesis is completed using the Klenow fragment of E. coli DNA polymerase I. Incorporation of oxidized cytosine derivatives is quantified by scintillation counting and the toxicity of the fractions is assessed by comparing the transfection efficiency of DNA synthesized by using fractions containing the altered nucleotides to that of DNA synthesized with dCTP passed through the same column. The mutagenicity of each fraction is measured by scoring forward mutations in the lacZ gene for β-galactosidase (Kunkel, Proc. Natl. Acad Sci. USA 81:1494-1498, 1984).
Mutations produced by the incorporation of oxidized derivatives of dCTP into gapped DNA are identified by reduced α-complementation of β-galactosidase activity. Logarithmic-phase MC1061 hsdR, mcrR, araD, (139.increment.^- araABC^- leu) 7679.increment.lacX74, galU, galK, rspL, thi^- ! is prepared for electroporation by washing the cells four times with sterile H2 O. Cells are then pelleted and resuspended in a volume of H2 O equal to that of the packed cells. Fifty nanograms of the filled-gap DNA product is mixed with 300 μl of cells and subjected to electroporation using a Bio-Rad Gene Pulser ([…], 400 W, 2.0 KV, and time constants between 6.0 and 7.5). Samples are placed on ice and mixed with 1 ml of LB medium. Aliquots (10-40 μl) of the transfection mixtures are added to 3 ml of molten top agar (42° C.) consisting of 0.9% NaCl, 0.8% Bacto Agar, 0.08% 5-bromo-4-chloro-3-indolylβ-D-galactoside dissolved in dimethlyformamide, and 0.2 ml of CSH50 .increment.(proBlac)/F'+raD36, thi^-, ara^-, proAB, lacI^α Z^- .increment.m15! cells in logarithmic phase, and layered onto plates containing 30 ml of solidified M9 medium supplemented with 1.5% Bacto Agar and 15 mM isopropyl-β-D-thiogalactoside (IPTG). Phenotypes are confirmed by mixing mutant phage with an equal quantity of wild type M13mp2 phage and replating. Phage DNA is isolated (Kunkel, Proc. Natl. Sci. USA 81:1494-1498, 1984) and sequenced by the method of Sanger etal. (J. Mol. Biol. 125:225-246, 1978) using a 15-mer oligodeoxyribonucleotide primer complementary to the +179 to +194 segment of the lacZα coding sequence.
Mutagenic potential of γ is assessed by using a forward mutation assay. To reduce the frequency of mutations arising from the incorporation of noncomplementary nucleotides by HIV-RT, this incubation is performed for only 2 min. Under these conditions, HIV-RT incorporates approximately five molecules of γ or nine molecules of undamaged dCTP per molecule of template. The gapped DNA is then completely filled by pol-I1f (the large fragment of E. coli DNA polymerase I) using the four undamaged nucleotides as substrates. The transfection efficiencies and mutation frequencies are given in Table I. In reactions without HIV-RT, 1040 transfectants are obtained per ng DNA, whereas with HIV-RT and undamaged dCTP ("purified" by reverse-phase and strong-anion exchange chromatography) the yield is 165 transfectants per ng of DNA. Substitution of γ for dCTP further reduced transfection efficiency, 73 transfectants per ng of DNA. In the absence of HIV-RT the mutation frequency is 4.6×10^-4 (line 1, Table I). […]

[1] = test system: mammalian DNA polymerase-α; assay: Incorporation by mammalian DNA polymerase-α; format: biochemical
Experimental: (§1) Five different mammalian DNA polymerases have been identified, purified and characterized. These are designated as DNA polymerases α, β, γ, δ, ε based on their amino acid sequences, intracellular localization and presumed role in cellular DNA metabolism (Fry and Loeb, CRC Press, 1986). The ability of a human DNA polymerase to incorporate a deoxynucleoside triphosphates analogs is determined using a DNA template that corresponds to the sequence of the RNA template used to analyze incorporation by HIV RT. A direct comparison is made on the incorporation of nucleoside analogs in the triphosphate form using a human DNA polymerase with that of HIV RT.

[2] = test system: mammalian DNA polymerase-β; assay: Incorporation by mammalian DNA polymerase-β; format: biochemical
Experimental: as §1

Nc1nc(=O)n([C@H]2C[C@H](O)[C@@H](COP(=O)(O)OP(=O)(O)OP(=O)(O)O)O2)cc1O [γ, 5-hydroxy-2'-deoxycytidine 5'-triphosphate]
Molecules incorporated by HIV-RT per molecule of template (HIV-RT): approximately five | Efficiency of incorporation into DNA by HIV-RT, % of that for dCTP (HIV-RT; relative to dCTP, gapped DNA): about 56% | Mutations that were C→T transitions (lacZ gene; 173 mutations, 92 mutants sequenced): 95.6% | Observed substitutions that occur at cytosines (lacZ gene; 178 of 181 substitutions, 92 mutants sequenced): 98.3% | Transfection efficiency, plaques per ng (lacZ gene): 73 plaques per ng | Increase of mutation frequency (lacZ gene; average of five molecules of γ per template DNA, versus reaction with dCTP): 109 fold | Transfection efficiency (yield of transfectants) (lacZ gene): 73 transfectants per ng of DNA | Mutation frequency (lacZ gene): 1200×10^-4 | Incorporation by mammalian DNA polymerase-α [1]: Neither species is incorporated appreciably | Incorporation by mammalian DNA polymerase-β relative to dCTP [2]: 18%

Nc1ccn([C@H]2C[C@H](O)[C@@H](COP(=O)(O)OP(=O)(O)OP(=O)(O)O)O2)c(=O)n1 [dCTP, reference compound]
Molecules incorporated by HIV-RT per molecule of template (HIV-RT): nine | Transfection efficiency, plaques per ng (lacZ gene): 165 plaques per ng | Increase of mutation frequency by reaction with HIV-RT and dCTP (lacZ gene; versus absence of HIV-RT): 2.4 fold | Transfection efficiency (yield of transfectants) (lacZ gene): 165 transfectants per ng of DNA | Mutation frequency (lacZ gene): 11 × 10^-4

Source: patent publication US5512431A, “Methods of screening for nucleoside analogs that are incorporated by HIV reverse transcriptase and cause incorrect base pairing” (priority 1994, dated 1996)
